In a melting point compilation (Tetko et al.; mined from patent text by program, amines drawn as free bases though some values may be those of a salt) one finds melting point data, which are given here for 89 compounds.

The compound `CN=C(SC)N(C)Cc1cccnc1Cl` showed a melting point of 106 to 113 °C.

For `CC(O)C(NC(=O)OC(C)(C)C)C(=O)OCC(=O)c1ccccc1` (centres undefined), the melting point stood at 114 °C.

In the case of `NC(=O)CN1C(=O)CC2Cc3c(Cl)cccc3C21` (centres undefined), the melting point is 186 to 188 °C.

In turn, `CCCc1cc(NC(=O)c2c(C)nn(C)c2C)c(C)c(-c2cc(CCC)c(C(C(F)(F)F)C(F)(F)F)cc2C)c1` came in with a melting point of 128 to 131 °C.

`COc1ccc(Nc2nc(NC3CCCCCC3)cc(N3CCC(O)CC3)n2)cc1Cl`: the melting point lay within 84 to 86 °C.

Compound `CCOC(=O)CNC(=O)C(CCl)NC(=O)OC(C)(C)C` (centres undefined) registered a melting point of 71.5 to 72 °C.

Turning to `CC(=O)Nc1nc(CCc2ccc(NC(=O)CNC(=O)OC(C)(C)C)cc2)c(Cc2ccc(S(C)(=O)=O)cc2)s1`, the melting point fell in the range of 186 to 188 °C.

In turn, `CC1=C(C(=O)OC(C)(C)C)C(c2cc(Br)ccc2F)C(C(=O)OC(C)(C)C)=C(C)N1` yielded a melting point of 173 to 174 °C.

Compound `Cc1ccc(CN(C(=S)Nc2ccccc2)C2CCCC2)cc1` had a melting point of 109 to 111 °C.

The compound `O=C1NCC(CN2CCCCC2)c2c[nH]c3cccc1c23` (centres undefined) yielded a melting point of 119 to 122 °C.

`COc1cc2c(c(F)c1CNC1CCCNC1c1ccccc1)N(C)C(=O)CC2(C)C` (centres undefined) yielded a melting point of more than 270 °C.

For the compound `CC(C)c1c(C=O)c(-c2ccc(F)cc2)nn1-c1ccccc1`, the melting point was 103 to 105 °C.

Take `Cc1cc(Cl)cc(C(=O)NCC2(C)CC2)c1NC(=O)c1cc(C(F)(F)F)nn1-c1ncccc1Cl`: the melting point was 210 °C.

Compound `CN1C(=O)C2CC2(c2ccc(N)cc2)C1=O` (centres undefined) yielded a melting point of 137 to 139 °C.

Regarding `OCc1ncccc1Cl`, the melting point fell in the range of 42 to 44 °C.

Turning to `COC(=O)c1ccc2nc3scc(C)c3c(=O)n2c1`, the melting point was in the range of 208 to 209 °C.

The compound `C[C@@H](N(C(=O)CN)C(=O)c1ccc(C(F)(F)F)cc1)[C@](O)(Cn1cncn1)c1ccc(F)cc1F` (relative stereo) came in with a melting point of 147 to 148 °C.

`Oc1ccc(Sc2cccc(F)n2)cc1` gave a melting point of 123 to 124 °C.

Compound `O=C1CCNC(=O)C1C(=O)c1ccc(Cl)c(Cl)c1` (centres undefined) came in with a melting point of 172 to 174 °C.

As to `COc1cn(-c2ccc(N3CCC(F)(F)C3)cc2F)nc(-c2ccnn2-c2ccccc2)c1=O`, the melting point lay within 195 to 197 °C.

`CCOCn1c(Br)c(Br)c(C#N)c1C(F)(F)F` registered a melting point of 65 to 67 °C.

The compound `CCOC(=O)c1cc2c(C)c(F)ccc2[nH]1` came in with a melting point of 148 to 149 °C.

Compound `COc1c(Cl)c(C=O)c(Cl)c(OC)c1OC` yielded a melting point of 76 °C.

With `OC(c1cn(C(c2ccccc2)(c2ccccc2)c2ccccc2)cn1)c1cc(Cl)cc2c1OCOC2` (centres undefined), the melting point lay within 233 to 235 °C.

Turning to `N#Cc1ccc(-c2ccc(OCCC(=O)NO)cc2)cc1`, the melting point is 114 to 118 °C.

Take `CC(=NO)C(C)(C)NCC(CNC(C)(C)C(C)=NO)CC(O)Cn1ccnc1[N+](=O)[O-]` (centres undefined): the melting point is 185 to 187 °C.

With `CCOc1ccccc1N1CCN(CCC2OCCc3cc(C(N)=O)ccc32)CC1` (centres undefined), the melting point was in the range of 208 to 210 °C.

Turning to `Cc1ccc2nc3cc(C)c(=O)c(Cl)c-3sc2c1`, the melting point was in the range of 193 to 195 °C.

Take `CSC(N)=Nc1nncs1`: the melting point was in the range of 116 to 117 °C.

Turning to `Cc1nonc1-n1cc(C(=O)O)c(=O)c2cc(F)c(N3CC[C@H](N)C3)c(F)c21`, the melting point was 169 to 170 °C.

`CCCOCCOC(=O)C1=C(C)NN=C(CC)C1c1cccc([N+](=O)[O-])c1` (centres undefined) displayed a melting point of 76 °C.

`CCOC(=O)C(=O)Nc1ncccc1C#N` had a melting point of 95 to 97 °C.

Consider `CCOC(=O)C(=O)c1ccc(OCCCn2c(=O)c3ccccc3c3ccccc32)cc1`, for which the melting point lay within 95 to 97 °C.

`Cc1ncc(C(=O)NCc2cc(C(F)(F)F)cc(C(F)(F)F)c2)c(-c2ccccc2)n1` returned a melting point of 188 to 190 °C.

`O=C1NC(=O)C(Cc2ccc(NC(=O)c3sc(Nc4ccccc4)c4c3CCc3cnoc3-4)cc2)S1` (centres undefined) gave a melting point of 151 to 152 °C.

For `CCC(=O)OC1(C(=O)CCl)C(C)CC2C3CCC4CC(=O)CCC4(C)C3(Cl)C(Cl)CC21C` (centres undefined), the melting point is 164 °C.

Consider `CCCCOc1c(CNC(=O)OC(C)(C)C)n(CC2CC2)c(=O)c2ccc(C(=O)OC)cc12`, for which the melting point is 139 to 140 °C.

The compound `CCCN=CNc1cccc(O)n1` showed a melting point of 178 to 179 °C.

`c1ccc(COc2cc(OCc3ccccc3)cc(OCc3ccccc3)c2)cc1`: the melting point was 91.5 to 91.9 °C.

In turn, `COc1c(C)c(C)cc(C)c1C(O)(c1ccc(C(C)C)cc1)C1CCN(Cc2ccccc2)CC1` (centres undefined) registered a melting point of 154 to 156 °C.

`COC(=O)c1cc(-c2ccccc2)c(=O)n2c1-c1sc(Br)cc1CC2` showed a melting point of 170 to 171 °C.

The compound `Nc1nc(Cl)c2ncn(C3C=CC(O)C3)c2n1` (centres undefined) displayed a melting point of 160 to 162 °C.

The compound `Cc1cc(-n2ccnc2)c2cccc(OCc3c(Cl)ccc(S(=O)(=O)N4CCC[C@H]4C(=O)NCCN(C)C)c3Cl)c2n1` came in with a melting point of 88 °C.

Turning to `CCCC(=O)c1c[nH]c2c(COC(=O)c3ccccc3)cccc2c1=O`, the melting point was in the range of 115 to 117 °C.

The compound `Nc1nc(NC2Cc3ccccc3C2)nc2c1ncn2C1OC(CO)C(O)C1O` (centres undefined) came in with a melting point of 129 to 132 °C.

Turning to `CC(C)(C)NC(=O)[C@@H]1[C@@H](O)CCN1C(=O)OC(C)(C)C`, the melting point lay within 122 to 124 °C.

On to `Cc1ccc2c3c(ccc2n1)OC[C@H](CNC(=O)C1CCc2c([nH]c4ccc(F)cc24)C1)O3` (some centres undefined), for which the melting point fell in the range of 92 to 96 °C.

On to `C=C1C=Cc2cc(C(=O)Nc3ccccc3)ccc2OC1`, for which the melting point is 139 °C.

Compound `CCOC(=O)C(=O)Nc1cc(C#N)cc(NC(=O)C(=O)OCC)c1` displayed a melting point of 189 to 190 °C.

The compound `COc1ccc(C(=O)c2cc(-c3ccc(NC(C)=O)cc3)c(N3CCOCC3)s2)cc1` showed a melting point of 198 °C.

On to `O=C(CNC(=O)c1ccncc1)NC1CCN(CCc2c[nH]c3ccccc23)CC1`, for which the melting point is 211 to 215 °C.

Regarding `CCOc1ccc(-c2nc(-c3cccc(N4CCCC4C(=O)O)n3)cs2)cc1OCC` (centres undefined), the melting point was 170 to 171 °C.

Compound `CCc1cc(CC(=O)O)n(C)c1C(=O)c1ccc(Cl)cc1` displayed a melting point of 129 to 131 °C.

`CC(C)NC(=O)N1CCC(O[N+](=O)[O-])CC1` showed a melting point of 93 to 95 °C.

As to `COc1cccc(C=C2OC(=O)c3ccccc32)c1`, the melting point lay within 119 to 123 °C.

As to `ClC1(NC2(Cc3ccncc3)NN=Cc3ccncc32)C=CC=CC1` (centres undefined), the melting point lay in the range of 220 to 221 °C.

In turn, `O=Cc1ccccc1Oc1ccc(I)cc1` gave a melting point of 84.5 to 86 °C.

As to `CN(C)C(=O)c1nc(-c2ccccc2)nc2c1c1cc(Cl)ccc1n2C`, the melting point is 222 to 224 °C.

In turn, `OCCCCCCOc1ccc(-c2ccccc2)cc1` gave a melting point of 92 to 94 °C.

Regarding `Cn1c(C=O)nnc1NCCCOc1cccc(CN2CCCCC2)c1`, the melting point fell in the range of 157 to 158 °C.

`CC1OC(OC2C=C(Br)C(=O)C(C)O2)C=C(Br)C1=O` (centres undefined) showed a melting point of 125 °C.

`O=C(Cc1ccc(Cl)cc1)c1ccc(OC(F)F)cc1`: the melting point fell in the range of 74 to 76 °C.

Compound `Cc1c(C)c2c(c(C)c1N)C(O)(c1ccc3ccccc3c1)C(C)(C)O2` (centres undefined) returned a melting point of 121 to 122 °C.

For the compound `CCc1nnc(NS(=O)(=O)c2ccc(N)cc2)s1`, the melting point was 190 to 191 °C.

`COc1ccc(S(=O)(=O)NCCc2ccc(C(C)=O)cc2)cc1` gave a melting point of 122 to 123 °C.

In turn, `COc1ccc(COc2cncc3c2C(=O)c2c(NCCN(C)C)ccc(Cl)c2C3=O)cc1` came in with a melting point of 127 to 128 °C.

In the case of `COc1cccc(NN)n1`, the melting point was in the range of 30 to 40 °C.

Compound `CCOC(=O)C(=O)c1cn(CC)c2cc(-c3ccc(C(F)(F)F)cc3)ccc12` came in with a melting point of 139 to 141 °C.

As to `CCN(CC)CCNC(=O)COc1cccc(-n2nc(-c3ccc(F)cc3)c3cccnc32)c1`, the melting point lay within 137 to 138 °C.

In turn, `Cc1c(NC(=O)c2cc3c(s2)C(O)CCC3)cccc1-c1cn(C)c(=O)c(Nc2ccc(C3C(=O)N(C)CCN3C)cc2)n1` (centres undefined) gave a melting point of 165 to 166 °C.

Take `OCC1OC(n2cnc3c(Cl)ncc(F)c32)C(O)C1O` (centres undefined): the melting point lay within 187 to 189 °C.

For `COc1cc2c(c(OC)c1OC)C(=O)C(CCCCCCC1Cc3cc(OC)c(OC)c(OC)c3C1=O)C2` (centres undefined), the melting point lay within 129 to 130 °C.

Regarding `CCNc1nc2c(N)nc3ccccc3c2n1CC(C)(C)O`, the melting point fell in the range of 233 to 235 °C.

In the case of `COCc1ccc(Cc2cccc(-c3c(O)c4ccc(Cl)cc4[nH]c3=O)c2)cc1`, the melting point was 276 to 278 °C.

With `COc1cccc(Sc2c(O)c3c(Cl)cc(Cl)cc3[nH]c2=O)c1`, the melting point lay within 269 to 270 °C.

In the case of `COc1ccc(CCC(=O)CC(=O)CCc2ccc(OC)cc2)cc1`, the melting point was in the range of 73.5 to 76.2 °C.

`CC(=O)N1CCC2(CC1)CN=C(c1cc3cccc(N(C)S(=O)(=O)c4cccs4)c3[nH]1)S2` showed a melting point of 216 to 218 °C.

`Cn1nc(-c2c(F)cccc2Cl)nc1C(C)(O)c1ccc(Cl)cc1` (centres undefined) returned a melting point of 198 to 200 °C.

`COc1cc(N)c(Cl)cc1C(=O)NC1CCN(CC2CCCCC2)CC1C` (centres undefined) came in with a melting point of 173 to 176 °C.

Compound `CCOC(=O)C1(Cc2ccc(OC)c(OC)c2)C(=O)NCC1c1ccc(OC)c(OC)c1` (centres undefined) yielded a melting point of 146 to 149 °C.

`Nc1cc(=O)n(Cc2cc(Cl)ccc2Cl)[nH]1` displayed a melting point of 195 to 196 °C.

The compound `NC(CC1c2ccccc2Sc2ccccc21)(C(=O)O)c1ccc(C(=O)O)cc1` (centres undefined) came in with a melting point of 251 °C.

For `CCCc1ccnc(C(N)=O)c1C(N)=O`, the melting point fell in the range of 178 to 179 °C.

For the compound `COc1ccc(C2(C#N)CCC(=O)CC2)cc1OC`, the melting point was 111 to 112 °C.

Take `OCc1ccccc1CCc1ccc(Br)cc1`: the melting point lay within 72 to 75.5 °C.

`Cc1cc(F)ccc1-c1cncc(OC2SCC(O)C(O)C2O)c1` (centres undefined) came in with a melting point of 217 °C.

Take `O=C(O)c1cccc2c1CC(c1csc(-c3ccncc3)n1)C(=O)N2` (centres undefined): the melting point was more than 250 °C.

In turn, `CC(C)N(CCS(=O)(=O)c1ccc(F)cc1)C(=O)Oc1ccccc1` showed a melting point of 94 to 95 °C.

Take `Cc1c(C)c(C(=O)CCl)c(C)c(C)c1Cl`: the melting point fell in the range of 94 to 96 °C.
